Measurements as given in US20260022142A1, “MACROCYCLIC IMMUNOMODULATORS” (Bristol-Myers Squibb Company, priority 2022, published 2026).
Bridge positions count the residues as written; N and C are the ends. Square brackets hold non-standard residues; d marks the D form. Peptide text beside a SMILES is read from it. * marks the point of attachment. ξ: configuration not given here. Phe(3-CF3) = N[C@@H](Cc1cccc(C(F)(F)F)c1)C(=O)O; Phe(4-CONH2) = NC(=O)c1ccc(C[C@H](N)C(=O)O)cc1; Phe(4-COOH) = N[C@@H](Cc1ccc(C(=O)O)cc1)C(=O)O; Bip = N[C@@H](Cc1ccc(-c2ccccc2)cc1)C(=O)O; Phe(3-Me) = Cc1cccc(C[C@H](N)C(=O)O)c1; Abu(3S-NH2) = C[C@H](N)[C@H](N)C(=O)O; NH(CH2)12COOH = O=C(O)CCCCCCCCCCCCN*; Val(3-OH) = CC(C)(O)[C@H](N)C(=O)O; 4Pal = N[C@@H](Cc1ccncc1)C(=O)O; 3Thi = N[C@@H](Cc1ccsc1)C(=O)O; Cha = N[C@@H](CC1CCCCC1)C(=O)O; Cit = NC(=O)NCCC[C@H](N)C(=O)O; Thr(3ξ) = CC(O)[C@H](N)C(=O)O; Carboxymethyl = O=C(O)C*; Orn = NCCC[C@H](N)C(=O)O; Pra = C#CC[C@H](N)C(=O)O; Aun = NCCCCCCCCCCC(=O)O; Dab = NCC[C@H](N)C(=O)O; Dap = NC[C@H](N)C(=O)O; AEEA = NCCOCCOCC(=O)O; ξS = NC(CO)C(=O)O

These molecules were tested against T1, PD-1/PD-L1 interaction (PE-labeled human PD-L1-Ig binding to Jurkat cell line over-expressing human PD-1) (Homo sapiens, UniProt Q15116) (assay: Jurkat-PD-1 Cell Binding High-Content Screening Assay (CBA)). Details: Jurkat cell line over-expressing human PD-1; PE-labeled PD-L1-Ig 20 nM final; read-out: Jurkat hPD1-PDL1 IC50.
T1 construct: expressed in transfected cells; host or cells: Jurkat
T1 sequence (Q15116 25-288): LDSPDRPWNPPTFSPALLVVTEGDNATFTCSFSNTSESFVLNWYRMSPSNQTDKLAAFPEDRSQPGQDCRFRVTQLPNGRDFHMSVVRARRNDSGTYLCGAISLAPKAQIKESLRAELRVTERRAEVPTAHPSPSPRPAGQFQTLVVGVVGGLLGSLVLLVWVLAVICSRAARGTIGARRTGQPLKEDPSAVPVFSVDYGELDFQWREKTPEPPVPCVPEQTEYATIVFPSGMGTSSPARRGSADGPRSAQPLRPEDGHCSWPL
Assay type: cell-based
Summary of the method: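 Binding of fluorescent PD-L1-Ig (20 nM final) to Jurkat-PD-1 cells was measured by automated imaging after 1 h, following a 2 h compound pre-treatment at 37° C.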

Row | SMILES | IC50
1 | Cc1cccc(C[C@@H]2NC(=O)[C@H](CC(=O)O)NC(=O)[C@H](Cc3ccc(OCC(=O)O)cc3)NC(=O)[C@H](C(C)O)NC(=O)CSC[C@@H](C(=O)N[C@@H](CO)C(=O)NCCCCCCCCCCC(=O)O)NC(=O)[C@H](CO)NC(=O)[C@H](C(C)(C)O)NC(=O)[C@H](CC3CCCCC3)NC(=O)[C@H](Cc3cnc[nH]3)NC(=O)[C@@H](CC(C)C)NC(=O)[C@H](CCCN)NC(=O)[C@H](Cc3ccc(OCC(=O)O)cc3)NC(=O)[C@H](Cc3ccc(-c4ccccc4)cc3)NC(=O)[C@H](Cc3ccc(OCC(=O)O)cc3)NC2=O)c1 (stereo partly drawn) [Compound 3723] ({CH2CO}-[Thr(3ξ)]Y(Carboxymethyl)D[Phe(3-Me)]Y(Carboxymethyl)[Bip]Y(Carboxymethyl)[Orn][dL]H[Cha][Val(3-OH)]SCS[Aun]-OH; thioether N-14) | 84.1 nM
2 | Cc1cccc(C[C@@H]2NC(=O)[C@H](CC(=O)O)NC(=O)[C@H](Cc3ccc(OCC(=O)O)cc3)NC(=O)[C@H](Cc3ccncc3)NC(=O)CSC[C@@H](C(=O)N[C@@H](CCN)C(=O)NCCCCCCCCCCC(=O)O)NC(=O)[C@H](CO)NC(=O)[C@H](C(C)(C)O)NC(=O)[C@H](CC3CCCCC3)NC(=O)[C@H](CCN)NC(=O)[C@@H](CC(C)C)NC(=O)[C@H](CCCN)NC(=O)[C@H](Cc3ccc(O)cc3)NC(=O)[C@H](Cc3ccc(-c4ccccc4)cc3)NC(=O)[C@H](Cc3ccc(C(N)=O)cc3)NC2=O)c1 [Compound 3717] ({CH2CO}-[4Pal]Y(Carboxymethyl)D[Phe(3-Me)][Phe(4-CONH2)][Bip]Y[Orn][dL][Dab][Cha][Val(3-OH)]SC[Dab][Aun]-OH; thioether N-14) | 5 nM
3 | CC(C)C[C@H]1NC(=O)[C@H](CCCN)NC(=O)[C@H](Cc2ccc(O)cc2)NC(=O)[C@H](Cc2ccc(-c3ccccc3)cc2)NC(=O)[C@H](C(C)C)NC(=O)[C@H](Cc2c[nH]c3ccccc23)NC(=O)[C@H](CC(=O)O)NC(=O)[C@H](Cc2ccc(OCC(=O)O)cc2)NC(=O)[C@H](CN)NC(=O)CSC[C@@H](C(=O)N[C@@H](CCN)C(=O)NCCCCCCCCCCC(=O)O)NC(=O)[C@H](CCCCN)NC(=O)[C@H](C(C)O)NC(=O)[C@H](CC2CCCCC2)NC(=O)[C@H](CCN)NC1=O (stereo partly drawn) [Compound 3655] ({CH2CO}-[Dap]Y(Carboxymethyl)DWV[Bip]Y[Orn][dL][Dab][Cha][Thr(3ξ)]KC[Dab][Aun]-OH; thioether N-14) | 61.8 nM
4 | CC(C)C[C@H]1NC(=O)[C@H](CCCN)NC(=O)[C@H](C(C)C)NC(=O)[C@H](Cc2ccc(-c3ccccc3)cc2)NC(=O)[C@H](C(C)C)NC(=O)[C@H](Cc2c[nH]c3ccccc23)NC(=O)[C@H](CC(=O)O)NC(=O)[C@H](Cc2ccc(OCC(=O)O)cc2)NC(=O)[C@H](CN)NC(=O)CSC[C@@H](C(=O)N[C@@H](CCCN)C(=O)NCCCCCCCCCCC(=O)O)NC(=O)[C@@H](CCC(N)=O)NC(=O)[C@H](C(C)C)NC(=O)[C@H](CC2CCCCC2)NC(=O)[C@H](Cc2c[nH]cn2)NC1=O [Compound 2796] ({CH2CO}-[Dap]Y(Carboxymethyl)DWV[Bip]V[Orn][dL]H[Cha]V[dQ]C[Orn][Aun]-OH; thioether N-14) | 78.5 nM
5 | CC(C)C[C@H]1NC(=O)[C@H](CCCN)NC(=O)[C@H](CCCNC(N)=O)NC(=O)[C@H](Cc2ccc(-c3ccccc3)cc2)NC(=O)[C@H](C(C)C)NC(=O)[C@H](Cc2c[nH]c3ccccc23)NC(=O)[C@H](CC(=O)O)NC(=O)[C@H](Cc2ccc(OCC(=O)O)cc2)NC(=O)[C@H](C(C)O)NC(=O)CSC[C@@H](C(=O)N[C@@H](CCN)C(=O)NCCOCCOCC(=O)NCCCCCCCCCCC(=O)O)NC(=O)[C@H](C(C)O)NC(=O)[C@H](C(C)(C)O)NC(=O)[C@H](CC2CCCCC2)NC(=O)[C@H](CCN)NC1=O (stereo partly drawn) [Compound 3736] ({CH2CO}-[Thr(3ξ)]Y(Carboxymethyl)DWV[Bip][Cit][Orn][dL][Dab][Cha][Val(3-OH)][Thr(3ξ)]C[Dab][AEEA][Aun]-OH; thioether N-14) | 18.5 nM
6 | CC(C)C[C@H]1NC(=O)[C@H](CN)NC(=O)[C@H](C(C)C)NC(=O)[C@H](Cc2ccc(-c3ccccc3)cc2)NC(=O)[C@H](C(C)C)NC(=O)[C@H](Cc2c[nH]c3ccccc23)NC(=O)[C@H](CC(=O)O)NC(=O)[C@H](Cc2ccc(OCC(=O)O)cc2)NC(=O)[C@H](Cc2ccsc2)NC(=O)CSC[C@@H](C(=O)NCCOCCOCC(=O)N[C@@H](CCCN)C(=O)NCCCCCCCCCCC(=O)O)NC(=O)[C@H](C(C)O)NC(=O)[C@H](C(C)C)NC(=O)[C@H](CC2CCCCC2)NC(=O)[C@H](CCN)NC1=O (stereo partly drawn) [Compound 3209] ({CH2CO}-[3Thi]Y(Carboxymethyl)DWV[Bip]V[Dap][dL][Dab][Cha]V[Thr(3ξ)]C[AEEA][Orn][Aun]-OH; thioether N-14) | 17.1 nM

More lines, in order of falling IC50, values ahead:

Row | IC50 | SMILES
7 | 55 nM | CC(C)C[C@H]1NC(=O)[C@H](CCCN)NC(=O)[C@H](Cc2ccc(C(=O)O)cc2)NC(=O)[C@H](Cc2ccc(-c3ccccc3)cc2)NC(=O)[C@H](Cc2ccc(C(=O)O)cc2)NC(=O)[C@H](Cc2cccc(C(F)(F)F)c2)NC(=O)[C@H](CC(=O)O)NC(=O)[C@H](Cc2ccc(OCC(=O)O)cc2)NC(=O)[C@H]([C@H](C)N)NC(=O)CSC[C@@H](C(=O)N[C@@H](CCN)C(=O)NCCCCCCCCCCCCC(=O)O)NC(=O)[C@H](CO)NC(=O)[C@H](C(C)(C)O)NC(=O)[C@H](CC2CCCCC2)NC(=O)[C@H](CCN)NC1=O [Compound 2944] ({CH2CO}-[Abu(3S-NH2)]Y(Carboxymethyl)D[Phe(3-CF3)][Phe(4-COOH)][Bip][Phe(4-COOH)][Orn][dL][Dab][Cha][Val(3-OH)]SC[Dab]-{NH(CH2)12COOH}; thioether N-14)
8 | 53.4 nM | Cc1cccc(C[C@@H]2NC(=O)[C@H](CC(=O)O)NC(=O)[C@H](Cc3ccc(OCC(=O)O)cc3)NC(=O)[C@H](CN)NC(=O)CSC[C@@H](C(=O)N[C@@H](CCN)C(=O)NCCCCCCCCCCC(=O)O)NC(=O)C(CO)NC(=O)[C@H](C(C)C)NC(=O)[C@H](CC3CCCCC3)NC(=O)[C@H](CCN)NC(=O)[C@@H](CC(C)C)NC(=O)[C@H](CCCN)NC(=O)[C@H](Cc3ccc(O)cc3)NC(=O)[C@H](Cc3ccc(-c4ccccc4)cc3)NC(=O)[C@H](C(C)C)NC2=O)c1 (stereo partly drawn) [Compound 2098] ({CH2CO}-[Dap]Y(Carboxymethyl)D[Phe(3-Me)]V[Bip]Y[Orn][dL][Dab][Cha]V[ξS]C[Dab][Aun]-OH; thioether N-14)
9 | 35.2 nM | C#CC[C@H](NC(=O)COCCOCCNC(=O)[C@H](CCCNC(=N)N)NC(=O)[C@@H]1CSCC(=O)N[C@@H](Cc2ccncc2)C(=O)N[C@@H](Cc2ccc(OCC(=O)O)cc2)C(=O)N[C@@H](CC(=O)O)C(=O)N[C@@H](Cc2c[nH]c3ccccc23)C(=O)N[C@@H](C(C)C)C(=O)N[C@@H](Cc2ccc(-c3ccccc3)cc2)C(=O)N[C@@H]([C@@H](C)CC)C(=O)N[C@@H](CCCN)C(=O)N[C@H](CC(C)C)C(=O)N[C@@H](CCN)C(=O)N[C@@H](CC(C)C)C(=O)N[C@@H](C(C)C)C(=O)N[C@@H]([C@@H](C)O)C(=O)N1)C(=O)NCCCCCCCCCCC(=O)O [Compound 1209] ({CH2CO}-[4Pal]Y(Carboxymethyl)DWV[Bip]I[Orn][dL][Dab]LVTCR[AEEA][Pra][Aun]-OH; thioether N-14)
10 | 14.8 nM | C#CC[C@H](NC(=O)COCCOCCNC(=O)[C@H](CCN)NC(=O)[C@@H]1CSCC(=O)N[C@@H](Cc2ccncc2)C(=O)N[C@@H](Cc2ccc(OCC(=O)O)cc2)C(=O)N[C@@H](CC(=O)O)C(=O)N[C@@H](Cc2c[nH]c3ccccc23)C(=O)N[C@@H](C(C)C)C(=O)N[C@@H](Cc2ccc(-c3ccccc3)cc2)C(=O)N[C@@H]([C@@H](C)CC)C(=O)N[C@@H](CCCN)C(=O)N[C@H](CC(C)C)C(=O)N[C@@H](CCN)C(=O)N[C@@H](CC(C)C)C(=O)N[C@@H](C(C)C)C(=O)N[C@@H]([C@@H](C)O)C(=O)N1)C(=O)N[C@@H](CCCNC(=N)N)C(=O)NCCCCCCCCCCC(=O)O [Compound 1197] ({CH2CO}-[4Pal]Y(Carboxymethyl)DWV[Bip]I[Orn][dL][Dab]LVTC[Dab][AEEA][Pra]R[Aun]-OH; thioether N-14)
11 | 8.7 nM | Cc1cccc(C[C@@H]2NC(=O)[C@H](CC(=O)O)NC(=O)[C@H](Cc3ccc(OCC(=O)O)cc3)NC(=O)[C@H](CN)NC(=O)CSC[C@@H](C(=O)N[C@@H](CC(=O)O)C(=O)NCCCCCCCCCCC(=O)O)NC(=O)[C@H]([C@@H](C)O)NC(=O)[C@H](C(C)C)NC(=O)[C@H](CC3CCCCC3)NC(=O)[C@H](CCN)NC(=O)[C@@H](CC(C)C)NC(=O)[C@H](CCCN)NC(=O)[C@H](CCCNC(N)=O)NC(=O)[C@H](Cc3ccc(-c4ccccc4)cc3)NC(=O)[C@H](C(C)C)NC2=O)c1 [Compound 1026] ({CH2CO}-[Dap]Y(Carboxymethyl)D[Phe(3-Me)]V[Bip][Cit][Orn][dL][Dab][Cha]VTCD[Aun]-OH; thioether N-14)
12 | 8.6 nM | Cc1cccc(C[C@@H]2NC(=O)[C@H](CC(=O)O)NC(=O)[C@H](Cc3ccc(OCC(=O)O)cc3)NC(=O)[C@H](CCCNC(=N)N)NC(=O)CSC[C@@H](C(=O)N[C@@H](CCN)C(=O)NCCCCCCCCCCC(=O)O)NC(=O)[C@H]([C@@H](C)O)NC(=O)[C@H](C(C)C)NC(=O)[C@H](CC3CCCCC3)NC(=O)[C@H](CCN)NC(=O)[C@@H](CC(C)C)NC(=O)[C@H](CCCN)NC(=O)[C@H](Cc3ccc(OCC(=O)O)cc3)NC(=O)[C@H](Cc3ccc(-c4ccccc4)cc3)NC(=O)[C@H](Cc3ccc(OCC(=O)O)cc3)NC2=O)c1 [Compound 2085] ({CH2CO}-RY(Carboxymethyl)D[Phe(3-Me)]Y(Carboxymethyl)[Bip]Y(Carboxymethyl)[Orn][dL][Dab][Cha]VTC[Dab][Aun]-OH; thioether N-14)
